{"source": "patent US12698467B2", "about": "“Tissue engineered scaffolds, instrumented bioreactors and methods of use thereof” (President and Fellows of Harvard College, priority 2018, dated 2026)", "key": {"[1]": {"tested_on": "human induced pluripotent stem cell-derived cardiomyocyte (hiPSC-CM) tissue-engineered ventricles", "assay": "β-adrenergic response of tissue-engineered hiPSC-CM ventricles by pressure-volume catheterization", "assay_type": "cell-based", "protocol": "(§1) Intra-ventricular pressure and volume were measured simultaneously using a Millar MPVS-Ultra single segment foundation system for rats with SPR-869NR rat pressure-volume (PV) catheters (ADInstruments, Colorado Springs, CO). Catheter calibration and PV experiments were performed in freshly prepared Tyrode's solution. First, tissue-engineered ventricles were transferred to a 3.5 cm petri dish mounted on a temperature-controlled stage (Warner Instruments, Hamden Conn.) to maintain 35° C. working temperature. Ventricles were sutured to silicone tubing through which catheters were inserted (FIG. 12A). Data acquired at a sampling rate of 2,000 samples per second using manufacturer-supplied acquisition systems (Millar MPVS ultra, ADInstruments LabChart) and was exported for post-processing with custom Matlab scripts (MathWorks, Natick MA).\n(§2) Catheter calibration. Catheters were equilibrated at 35° C. prior to use and calibrated for pressure using a manometer (Meriam M2; Meriam Process Technologies, Cleveland, OH) and volume using manufacturer-supplied cuvettes (Millar P/N 910-1048). […] Separate scaffold-specific calibrations were performed, where cell-free scaffolds were inflated and deflated by manual application of pressure through a solution-filled syringe connected to the ventricle through a junction port. […] In some cases, pressure or volume signal noise and drift were reduced by post-processing using Matlab's smooth and polyfit functions (FIG. 12C). Pressure and volume signals were normalized by polynomial background subtraction to reduce unwanted signal drift from large data sets, clarifying frequency-domain analysis of ventricle beat rates over these time periods (FIGS. 13A-13D).\n(§3) β-adrenergic response of tissue-engineered ventricles. The contractile response of tissue-engineered ventricles to increasing concentrations of the β-adrenergic agonist isoproterenol was measured as follows. A 100 mM stock solution of isoproterenol (Sigma-Aldrich) containing 110 μM ascorbic acid (Sigma-Aldrich) and 45 μM EDTA (Sigma-Aldrich) was prepared in Tyrode's solution and stored at −20° C. […]"}, "[2]": {"tested_on": "neonatal rat ventricular myocyte (NRVM) tissue-engineered ventricles", "assay": "β-adrenergic response of tissue-engineered NRVM ventricles by pressure-volume catheterization", "assay_type": "cell-based", "protocol": "as §1, §2, §3"}}, "note": "Entries after “also recorded” stand apart in the source; their conditions may differ."}
{"smiles": "CC(C)NCC(O)c1ccc(O)c(O)c1", "note": "(stereo not drawn) [isoproterenol]", "values": [{"measurement": "chronotropic response of ventricle beat rate", "setting": "[1]; hiPSC-CM ventricles, 1 e^−10 M to 1 e^−4 M, cumulative doses", "result": "positive chronotropic response"}, {"measurement": "increase of ventricle beat rate", "setting": "[1]; hiPSC-CM ventricles, 10^−4 M isoproterenol, compared to spontaneous baseline (no Iso)", "result": "~ 40%"}, {"measurement": "effect on stroke work (pressure/volume loops)", "setting": "[1]; human (hiPSC-CM) ventricles, before vs after isoproterenol exposure", "result": "reduction in stroke work; also recorded: reduced stroke work"}, {"measurement": "chronotropic response of ventricle beat rate", "setting": "[2]; NRVM ventricles, 1 e^−10 M to 1 e^−4 M, cumulative doses", "result": "positive chronotropic response"}, {"measurement": "increase of ventricle beat rate", "setting": "[2]; NRVM ventricles, 10^−4 M isoproterenol, compared to spontaneous baseline (no Iso)", "result": "~ 40%"}, {"measurement": "effect on stroke work (pressure/volume loops)", "setting": "[2]; rat (NRVM) ventricles, before vs after isoproterenol exposure", "result": "reduction in stroke work; also recorded: reduced stroke work"}]}
